“And” between values parts separate entries of the source, which are not always exact repeats. Identical values can stand only once. The source made the active and inactive calls.
Tests used:
[1] = target: Muscarinic acetylcholine receptor M1 (Rattus norvegicus, UniProt P08482); test: rat M1 positive allosteric modulator potency, dose response, cell-based, calcium mobilization, CHO-K1, ACh EC20 (AID 2425); assay type: functional
[2] = M. tuberculosis growth inhibition, HTS (AID 449762); assay type: functional
[3] = microbe, parasite or virus in culture; assay type: functional; settings: Mycobacterium tuberculosis
Estrogen receptor beta = Estrogen receptor beta (Homo sapiens, UniProt Q92731); test: ERβ–SRC-3 coactivator interaction inhibitors, confirmation, orthogonal assay, biochemical, ELISA, streptavidin-HRP readout (AID 1060)
Estrogen receptor beta, sequence (Q92731 whole entry): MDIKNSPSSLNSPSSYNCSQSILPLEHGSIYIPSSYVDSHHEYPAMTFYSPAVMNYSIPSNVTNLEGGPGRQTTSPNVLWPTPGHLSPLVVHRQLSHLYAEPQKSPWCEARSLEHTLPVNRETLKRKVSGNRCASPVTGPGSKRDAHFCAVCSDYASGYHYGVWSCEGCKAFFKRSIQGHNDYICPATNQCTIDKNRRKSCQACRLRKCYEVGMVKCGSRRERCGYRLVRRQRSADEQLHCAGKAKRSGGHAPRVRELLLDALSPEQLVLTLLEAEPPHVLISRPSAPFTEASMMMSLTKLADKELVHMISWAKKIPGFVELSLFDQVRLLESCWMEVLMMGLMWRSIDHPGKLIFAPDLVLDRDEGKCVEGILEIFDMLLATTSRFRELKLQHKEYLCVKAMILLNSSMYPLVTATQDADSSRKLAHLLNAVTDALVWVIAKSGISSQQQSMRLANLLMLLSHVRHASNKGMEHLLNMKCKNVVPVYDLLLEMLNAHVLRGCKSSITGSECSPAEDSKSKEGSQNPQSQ

Ephrin type-A receptor 4 = Ephrin type-A receptor 4 (Mus musculus, UniProt Q03137); test: inhibitors of EphA4 binding to KYL peptide, primary screen, biochemical, colorimetric, mouse EphA4 (AID 689); assay type: functional
Ephrin type-A receptor 4, sequence (Q03137 whole entry): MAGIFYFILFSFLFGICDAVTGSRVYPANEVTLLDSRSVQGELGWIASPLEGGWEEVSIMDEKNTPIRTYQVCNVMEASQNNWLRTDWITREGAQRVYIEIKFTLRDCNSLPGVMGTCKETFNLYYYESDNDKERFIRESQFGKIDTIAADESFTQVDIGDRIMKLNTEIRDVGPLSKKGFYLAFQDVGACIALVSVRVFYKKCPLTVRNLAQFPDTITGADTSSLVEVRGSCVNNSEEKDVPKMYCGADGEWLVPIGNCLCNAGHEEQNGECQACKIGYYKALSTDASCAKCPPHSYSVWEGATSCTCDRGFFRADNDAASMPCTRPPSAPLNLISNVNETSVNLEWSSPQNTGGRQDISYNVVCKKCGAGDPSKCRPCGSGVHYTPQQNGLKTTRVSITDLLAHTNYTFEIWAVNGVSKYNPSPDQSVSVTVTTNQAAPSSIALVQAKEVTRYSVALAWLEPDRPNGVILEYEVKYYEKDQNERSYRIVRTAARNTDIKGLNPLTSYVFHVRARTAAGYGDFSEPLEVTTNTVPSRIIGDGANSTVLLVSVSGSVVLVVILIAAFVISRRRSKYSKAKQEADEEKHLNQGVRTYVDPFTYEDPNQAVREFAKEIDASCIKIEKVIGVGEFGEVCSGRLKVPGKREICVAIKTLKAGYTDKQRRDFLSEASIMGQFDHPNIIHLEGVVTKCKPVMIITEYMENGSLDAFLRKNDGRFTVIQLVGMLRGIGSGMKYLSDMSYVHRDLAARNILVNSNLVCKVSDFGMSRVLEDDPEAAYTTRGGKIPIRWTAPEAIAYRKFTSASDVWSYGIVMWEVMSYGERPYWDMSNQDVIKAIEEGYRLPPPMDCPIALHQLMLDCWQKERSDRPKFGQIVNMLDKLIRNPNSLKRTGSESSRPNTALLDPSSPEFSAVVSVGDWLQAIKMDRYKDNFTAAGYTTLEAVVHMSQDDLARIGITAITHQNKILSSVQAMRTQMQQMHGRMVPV

[4] = target: T1, Induced myeloid leukemia cell differentiation protein Mcl-1 (Homo sapiens, UniProt Q07820); assay type: functional
T1 sequence (Q07820 whole entry): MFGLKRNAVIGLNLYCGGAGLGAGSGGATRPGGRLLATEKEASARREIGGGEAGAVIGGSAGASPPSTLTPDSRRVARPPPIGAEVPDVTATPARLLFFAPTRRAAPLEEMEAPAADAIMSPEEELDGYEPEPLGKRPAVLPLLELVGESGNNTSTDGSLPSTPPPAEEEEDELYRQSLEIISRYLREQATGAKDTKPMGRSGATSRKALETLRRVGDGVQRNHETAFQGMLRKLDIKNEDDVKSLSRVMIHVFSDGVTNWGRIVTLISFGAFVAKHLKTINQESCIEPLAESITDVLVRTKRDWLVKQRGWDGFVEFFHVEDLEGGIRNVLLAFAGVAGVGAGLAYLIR

[5] = target: T2, Tyrosine-protein phosphatase non-receptor type 7 (Homo sapiens, UniProt P35236); test: redox-dependent HePTP inhibition, mechanism study, biochemical, fluorescence (AID 2068); assay type: functional
T2 sequence (P35236 whole entry): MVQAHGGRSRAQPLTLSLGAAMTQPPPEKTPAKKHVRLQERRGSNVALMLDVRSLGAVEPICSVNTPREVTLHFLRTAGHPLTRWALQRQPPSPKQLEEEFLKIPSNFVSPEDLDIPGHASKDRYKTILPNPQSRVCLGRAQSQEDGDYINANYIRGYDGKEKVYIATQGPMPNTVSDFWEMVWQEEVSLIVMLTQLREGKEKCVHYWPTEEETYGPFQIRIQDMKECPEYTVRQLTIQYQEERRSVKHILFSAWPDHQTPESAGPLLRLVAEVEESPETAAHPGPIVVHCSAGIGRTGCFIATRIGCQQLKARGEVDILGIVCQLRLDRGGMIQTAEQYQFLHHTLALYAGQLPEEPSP

[6] = target: E3 ubiquitin-protein ligase Mdm2 (Homo sapiens, UniProt Q00987); test: enhancers of MDM2-luciferase reporter signal, concentration-effect titration, project on inhibitors of MDM2 ubiquitin ligase, cellular assay, luminescent readout, 384-well plate format (AID 1394); assay type: functional;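 note: MDM2 E3 inhibitors raise luminescence so EC50 is for signal enhancement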
E3 ubiquitin-protein ligase Mdm2, sequence (Q00987 whole entry): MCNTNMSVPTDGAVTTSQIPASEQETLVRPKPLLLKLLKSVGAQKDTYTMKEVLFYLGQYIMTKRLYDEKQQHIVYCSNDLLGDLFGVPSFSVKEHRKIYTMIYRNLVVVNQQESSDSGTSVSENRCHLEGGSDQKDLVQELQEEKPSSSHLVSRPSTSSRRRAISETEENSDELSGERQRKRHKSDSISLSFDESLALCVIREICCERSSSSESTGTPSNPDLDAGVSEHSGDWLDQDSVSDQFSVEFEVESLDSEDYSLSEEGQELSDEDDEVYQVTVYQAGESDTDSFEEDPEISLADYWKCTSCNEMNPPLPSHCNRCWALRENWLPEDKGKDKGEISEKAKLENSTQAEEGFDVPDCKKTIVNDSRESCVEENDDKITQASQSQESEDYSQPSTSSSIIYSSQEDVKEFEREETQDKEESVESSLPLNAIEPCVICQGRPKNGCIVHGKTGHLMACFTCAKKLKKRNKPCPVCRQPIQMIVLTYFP

[7] = Shn3 3'UTR reporter inhibitors, dose response, cell-based, Clone20 osteoblasts, firefly luciferase, cherry-picked (AID 624132); assay type: functional;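 note: firefly luciferase luminescence from reporter carrying the Shn3 3'UTR in osteoblasts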
[8] = control 3'UTR Renilla luciferase suppression, dose response, counter-screen for Shn3 inhibitor project, cell-based, Clone20-Shn3RL, cherry-picked (AID 624133); assay type: functional
[9] = HEK293T cell cytotoxicity, dose response, cytotoxicity control for HIV Vif inhibitor project, cherry-picks (AID 652208); assay type: functional, cell-based
Bcl-2-like protein 10 = Bcl-2-like protein 10 (Homo sapiens, UniProt Q9HD36); test: displacers of TR3 peptide from Bcl-B, primary screen, selectivity assay for Bfl-1 inhibitor project, biochemical, fluorescence polarization, FITC-TR3 peptide (AID 748);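 note: fluorescence polarization from a fluorescein-labelled TR3 peptide binding purified Bcl-B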
Bcl-2-like protein 10, sequence (Q9HD36 whole entry): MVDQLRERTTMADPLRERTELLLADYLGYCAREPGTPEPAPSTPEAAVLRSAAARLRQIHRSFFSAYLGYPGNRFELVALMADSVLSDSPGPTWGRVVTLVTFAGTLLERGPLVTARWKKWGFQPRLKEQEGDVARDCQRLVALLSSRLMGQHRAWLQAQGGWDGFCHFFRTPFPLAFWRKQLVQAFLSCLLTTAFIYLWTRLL

[10] = Artemis endonuclease inhibitor potency, dose response, biochemical, fluorescence intensity (AID 720701); assay type: functional;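 note: Artemis endonuclease enzyme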
BJ [11] = test: cytotoxicity toward BJ-TERT fibroblasts, dose response, cell-based, RAS-independent, luminescence (AID 1933); assay type: functional; settings: Homo sapiens
BJ [12] = test: cells; assay type: functional, cell-based; settings: Homo sapiens
BJ [13] = test: cytotoxicity toward BJ-TERT-LT-ST fibroblasts, dose response, cell-based, RAS-independent, luminescence (AID 1935); assay type: functional; settings: Homo sapiens;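 note: BJ fibroblasts immortalized with TERT plus LT and ST oncogenes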
[14] = cytotoxicity toward DRD oncogenic fibroblasts, dose response, cell-based, non-viral oncogenic, luminescence (AID 1934); assay type: functional; settings: Homo sapiens
[15] = HEK293 cell cytotoxicity, dose response, cytotoxicity control, dry powder samples (AID 720567); assay type: functional, cell-based
[16] = HepG2 cell cytotoxicity, dose response, cytotoxicity control, dry powder samples (AID 720568); assay type: functional, cell-based
[17] = target: T1, Induced myeloid leukemia cell differentiation protein Mcl-1; test: MCL1-BIM BH3 interaction inhibitors, dose response, biochemical, fluorescence polarization, BIM-BH3 peptide, 1536-well (AID 2217)
Bcl-2-like protein 1 = Bcl-2-like protein 1 (Homo sapiens, UniProt Q07817); test: BCL-XL inhibitors, dose response, selectivity assay for MCL1 inhibitor project, biochemical, fluorescence polarization, 1536-well (AID 2218)
Bcl-2-like protein 1, sequence (Q07817 whole entry, the tested form may be a part): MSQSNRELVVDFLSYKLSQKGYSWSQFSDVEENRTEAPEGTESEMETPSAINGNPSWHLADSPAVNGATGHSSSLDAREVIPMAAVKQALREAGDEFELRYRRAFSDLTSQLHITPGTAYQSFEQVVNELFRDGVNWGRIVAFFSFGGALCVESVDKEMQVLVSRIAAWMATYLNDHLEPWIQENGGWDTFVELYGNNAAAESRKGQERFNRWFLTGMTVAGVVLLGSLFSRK

[18] = target: T3, Carboxy-terminal domain RNA polymerase II polypeptide A small phosphatase 1 (Homo sapiens, UniProt Q9GZU7); test: inhibitors of CTDSP1, concentration-response testing, biochemical assay, absorbance-based, actives from ultra-high-throughput screening (AID 540297); assay type: functional
T3 sequence (Q9GZU7 whole entry): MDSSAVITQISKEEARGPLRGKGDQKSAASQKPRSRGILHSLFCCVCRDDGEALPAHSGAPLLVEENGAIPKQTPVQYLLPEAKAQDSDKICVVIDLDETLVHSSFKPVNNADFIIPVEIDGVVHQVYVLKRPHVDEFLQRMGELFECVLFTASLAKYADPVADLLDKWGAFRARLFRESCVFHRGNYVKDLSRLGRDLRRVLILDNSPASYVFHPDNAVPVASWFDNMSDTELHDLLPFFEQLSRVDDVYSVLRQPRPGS

Caspase-6 = target: T4, Caspase-6 (Homo sapiens, UniProt P55212); test: human caspase-6 inhibitors, dose response, biochemical, VEID-R110 fluorescence, cherry-pick (AID 720632)
T4 sequence (P55212 whole entry): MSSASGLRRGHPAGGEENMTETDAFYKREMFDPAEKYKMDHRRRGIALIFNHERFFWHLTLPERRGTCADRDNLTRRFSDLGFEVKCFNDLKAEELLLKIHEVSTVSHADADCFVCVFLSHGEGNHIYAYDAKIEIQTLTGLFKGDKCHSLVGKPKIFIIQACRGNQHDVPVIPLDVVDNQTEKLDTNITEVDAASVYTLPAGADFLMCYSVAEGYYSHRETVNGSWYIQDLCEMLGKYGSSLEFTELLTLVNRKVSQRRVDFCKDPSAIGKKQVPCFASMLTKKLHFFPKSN

Caspase-7 = Caspase-7 (Homo sapiens, UniProt P55210); test: human caspase-7 inhibitors, dose response, selectivity assay for caspase-6 inhibitor project, biochemical, DEVD-R110 fluorescence, cherry-pick (AID 743295)
Caspase-7, sequence (P55210 24-198 limits assumed): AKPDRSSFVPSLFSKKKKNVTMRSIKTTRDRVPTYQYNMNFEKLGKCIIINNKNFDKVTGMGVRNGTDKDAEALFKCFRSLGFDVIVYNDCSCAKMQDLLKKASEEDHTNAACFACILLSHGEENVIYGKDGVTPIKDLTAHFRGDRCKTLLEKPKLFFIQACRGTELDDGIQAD
Caspase-7, sequence (P55210 207-303 limits assumed): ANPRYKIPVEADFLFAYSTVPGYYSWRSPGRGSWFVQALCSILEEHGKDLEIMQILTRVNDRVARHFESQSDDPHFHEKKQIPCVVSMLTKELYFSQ

Caspase-8 = Caspase-8 (Homo sapiens, UniProt Q14790); test: caspase-8 inhibition counter-screen, dose response, selectivity assay for caspase-6 inhibitor project, biochemical, Z-IETD-R110 fluorescence, cherry-picked samples (AID 743294)
Caspase-8, sequence (Q14790 217-374 limits assumed): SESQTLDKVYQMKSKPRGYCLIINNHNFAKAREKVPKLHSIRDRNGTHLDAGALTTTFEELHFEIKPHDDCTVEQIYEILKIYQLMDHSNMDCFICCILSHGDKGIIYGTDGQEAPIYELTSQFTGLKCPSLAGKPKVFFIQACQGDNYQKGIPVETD
Caspase-8, sequence (Q14790 385-479 limits assumed): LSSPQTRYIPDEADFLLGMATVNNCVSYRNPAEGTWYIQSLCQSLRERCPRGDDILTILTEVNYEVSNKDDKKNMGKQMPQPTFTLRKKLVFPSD

Protein Tat = Protein Tat (Human immunodeficiency virus type 1 group M subtype B (isolate HXB2)(HIV-1), UniProt P04608); assay type: functional;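 note: tat binding to TAR RNA read out by fluorescence polarization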
Protein Tat, sequence (P04608 whole entry): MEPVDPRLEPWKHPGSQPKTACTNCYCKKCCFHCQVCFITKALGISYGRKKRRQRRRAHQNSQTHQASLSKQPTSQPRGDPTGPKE

[19] = target: T2, Tyrosine-protein phosphatase non-receptor type 7; test: inhibitors of human HePTP phosphatase, […], biochemical, absorbance, leukemia target (AID 521); assay type: functional
[20] = target: T5, Beta-2 adrenergic receptor (Homo sapiens, UniProt P07550); test: Dose response for HTS for Beta-2AR agonists via FAP method from Powderset1.; assay type: functional
T5 sequence (P07550 whole entry): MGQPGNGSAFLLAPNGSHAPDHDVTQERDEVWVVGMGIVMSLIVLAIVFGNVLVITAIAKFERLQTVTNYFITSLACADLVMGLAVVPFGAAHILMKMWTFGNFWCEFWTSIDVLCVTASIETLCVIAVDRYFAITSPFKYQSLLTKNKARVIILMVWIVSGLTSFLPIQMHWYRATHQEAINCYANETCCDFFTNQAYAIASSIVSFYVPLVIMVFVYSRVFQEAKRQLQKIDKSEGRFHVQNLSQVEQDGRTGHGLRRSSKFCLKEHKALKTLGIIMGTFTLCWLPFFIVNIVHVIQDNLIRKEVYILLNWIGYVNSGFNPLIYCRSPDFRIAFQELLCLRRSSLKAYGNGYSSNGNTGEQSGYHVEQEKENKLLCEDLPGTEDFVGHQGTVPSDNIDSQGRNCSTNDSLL

[21] = target: T5, Beta-2 adrenergic receptor; test: beta2AR agonists driving receptor internalization, dose response, cell-based, FAP fluorogen, flow cytometry, cherry pick 1 (AID 588763); assay type: functional

Muscarinic acetylcholine receptor M1, sequence (P08482 whole entry): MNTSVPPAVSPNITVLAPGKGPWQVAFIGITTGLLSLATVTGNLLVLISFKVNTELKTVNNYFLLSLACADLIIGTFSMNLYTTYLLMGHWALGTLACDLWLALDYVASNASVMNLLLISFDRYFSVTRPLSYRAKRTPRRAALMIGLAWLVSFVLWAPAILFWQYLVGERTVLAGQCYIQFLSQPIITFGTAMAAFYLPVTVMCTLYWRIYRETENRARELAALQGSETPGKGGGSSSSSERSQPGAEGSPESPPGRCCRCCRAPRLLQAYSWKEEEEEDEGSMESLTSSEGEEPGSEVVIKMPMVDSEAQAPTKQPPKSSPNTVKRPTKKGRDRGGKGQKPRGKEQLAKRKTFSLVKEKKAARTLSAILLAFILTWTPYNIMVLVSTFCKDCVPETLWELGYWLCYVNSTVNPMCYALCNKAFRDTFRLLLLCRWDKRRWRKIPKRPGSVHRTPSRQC

Cn1cc(-c2ccc(CN3C(=O)C(=O)c4ccccc43)c(F)c2)cn1
EC50 [1]: 845 nM (active)

O=C(CSc1n[nH]c(-c2ccccc2)n1)Nc1ccc(Br)cn1
IC50 [2]: > 100 µM (active)
CC50 [3]: > 40 µM (active)

O=C(NCc1ccccc1)c1ccc2nc(-c3ccco3)c(-c3ccco3)nc2c1
IC50 (Estrogen receptor beta): < 23 nM (not active)
IC50 (Ephrin type-A receptor 4): 11.1 µM (active)
IC50 [4]: 4.26 µM (active)
IC50 [5]: 3.99 µM (active)

COc1ccc(-c2cc(C(F)(F)F)nc(S(=O)(=O)CCCC(=O)Nc3cccnc3Cl)n2)cc1OC
EC50 [6]: 25 µM (not active)
AC50 [7]: 3.17 µM (active)
AC50 [8]: 13.8 µM (active)
AC50 [9]: 11.6 µM (active)

Cc1cc(OCC(=O)Nc2ccc(N3CCCC3)cc2)cc(C)c1Cl
IC50 (Bcl-2-like protein 10): > 100 µM (inactive)
IC50 [10]: > 20 µM (inactive)

COc1cc(C(=O)NCCOc2cc(C)cc(C)c2)cc(OC)c1OC
EC50 (BJ [11]): 16.3 µM (active)
EC50 (BJ [12]): 5.25 µM (active)
EC50 (BJ [13]): 17.1 µM (inconclusive)
EC50 [14]: 4.9 µM (active)
AC50 [15]: 16.9 µM (active)
AC50 [16]: 24.7 µM (active)

Cc1ccc(C)c(NC(=O)CN(C)C(=O)c2cccc(-n3cccc3)c2)c1
IC50 [17]: 10.9 µM (not active)
IC50 (Bcl-2-like protein 1): > 109 µM (not active)
IC50 [18]: 6.04 µM (active)
AC50 (Caspase-6): 4.58 µM (active)
AC50 (Caspase-7): > 70 µM (inactive)
AC50 (Caspase-8): > 70 µM (inactive)
IC50 (Protein Tat): > 100 µM (active)

Cc1ccc(OCC(=O)Nc2ccc(-c3nc4ncccc4o3)cc2)cc1
IC50 [19]: > 100 µM (not active)
EC50 [20]: 15.5 nM (active)
EC50 [21]: 31.6 nM (active) and 61.1 nM (active)
